In patent US20250388575A1, “HETEROBIFUNCTIONAL COMPOUNDS AND METHODS OF TREATING DISEASE” (Halda Therapeutics OpCo, Inc., priority 2022, published 2025):
Where two headings read alike, the source gives them in different places.

Assays:
androgen receptor = androgen receptor (Homo sapiens, UniProt P10275); experiment: Assay for binding affinity to androgen receptor ([3H]methyltrienolone radioligand, cell cytosol); settings: binding to the androgen receptor, 1 nM [3H]methyltrienolone, 24 hr at 4° C.
androgen receptor, sequence (P10275 whole entry, looked up): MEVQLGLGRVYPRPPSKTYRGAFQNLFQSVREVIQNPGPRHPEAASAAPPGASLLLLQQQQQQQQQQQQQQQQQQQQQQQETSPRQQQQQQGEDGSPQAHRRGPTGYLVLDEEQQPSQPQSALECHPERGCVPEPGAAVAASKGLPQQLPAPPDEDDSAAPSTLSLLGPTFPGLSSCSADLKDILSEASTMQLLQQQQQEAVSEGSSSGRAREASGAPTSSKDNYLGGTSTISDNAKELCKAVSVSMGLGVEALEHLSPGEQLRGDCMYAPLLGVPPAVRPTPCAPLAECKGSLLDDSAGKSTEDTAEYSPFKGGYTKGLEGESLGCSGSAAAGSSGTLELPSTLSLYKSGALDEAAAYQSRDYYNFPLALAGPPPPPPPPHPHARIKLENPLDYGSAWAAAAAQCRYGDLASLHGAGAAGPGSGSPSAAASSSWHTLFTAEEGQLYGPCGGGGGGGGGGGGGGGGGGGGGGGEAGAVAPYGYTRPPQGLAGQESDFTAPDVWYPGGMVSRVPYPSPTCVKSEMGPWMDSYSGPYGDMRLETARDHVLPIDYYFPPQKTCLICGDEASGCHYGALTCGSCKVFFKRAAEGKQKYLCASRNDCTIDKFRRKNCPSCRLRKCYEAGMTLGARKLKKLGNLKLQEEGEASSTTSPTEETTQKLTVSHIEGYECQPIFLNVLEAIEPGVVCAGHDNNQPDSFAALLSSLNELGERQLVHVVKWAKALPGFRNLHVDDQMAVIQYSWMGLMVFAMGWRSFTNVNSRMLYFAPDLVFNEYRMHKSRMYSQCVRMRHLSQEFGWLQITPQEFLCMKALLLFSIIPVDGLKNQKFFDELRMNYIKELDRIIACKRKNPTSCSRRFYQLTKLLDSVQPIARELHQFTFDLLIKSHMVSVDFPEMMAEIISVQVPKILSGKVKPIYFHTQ
Method: Fractions of cell cytosol (106 cell/point) were incubated for 24 hr at 4° C. with 1 nM [^3H]methyltrienolone in the absence or presence of the test compound in a buffer containing 25 mM Hepes-Tris (pH 7.4), 1 mM EDTA, 10 mM Na2MoO4, 2 mM DTT, 5 µM triamcinolone acetonide, and 10% glycerol. Nonspecific binding was determined in the presence of 1 μM testosterone. Following incubation, the samples were filtered rapidly under vacuum through glass fiber filters (GF/B, Packard) presoaked with 0.3% PEI and rinsed several times with ice-cold 50 mM Tris-HCl using a 96-sample cell harvester (Unifilter, Packard). The filters were dried then counted for radioactivity in a scintillation counter (Topcount, Packard) using a scintillation cocktail (Microscint 0, Packard). The results are expressed as a percent inhibition of the control radioligand specific binding. The standard reference compound is testosterone, which is tested in each experiment at several concentrations to obtain a competition curve from which its IC50 is calculated.

[1] = test system: T-Rex 293 cell line SC3 cells having increased expression of androgen receptor protein; experiment: Cellular growth inhibition, T-Rex 293 SC3 cells with increased androgen receptor expression (doxycycline), CellTiter-Glo; format: cell-based; settings: T-Rex 293 SC3 cells with increased androgen receptor expression (exposed to 10 ng/mL doxycycline), 72 hours, CellTiter-Glo; read-out: GI50
Procedure, shortened: (§1)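 SC3, a T-Rex 293 clone with doxycycline-inducible wild-type androgen receptor, was seeded in phenol red-free DMEM with 10% charcoal-dextran FBS, with or without 10 ng/mL doxycycline. Compound added at 24 h (0.5% DMSO) for 72 h at 37° C. CellTiter-Glo 2.0 luminescence; GI50 from four-parameter fit.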

[2] = test system: T-Rex 293 cell line SC3 cells lacking increased expression of androgen receptor protein; experiment: Cellular growth inhibition, T-Rex 293 SC3 cells lacking increased androgen receptor expression (no doxycycline), CellTiter-Glo; format: cell-based; settings: T-Rex 293 SC3 cells lacking increased androgen receptor expression (not exposed to doxycycline), 72 hours, CellTiter-Glo; read-out: GI50
Procedure, shortened: as §1

VCaP cells = experiment: Cellular growth inhibition assay for VCaP cells, CellTiter-Glo; format: cell-based, human; settings: VCaP cells, 72 hours, CellTiter-Glo, read-out: GI50
Procedure, shortened: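 GI50 values come from four-parameter curve fits of luminescence data normalized to a zero baseline. Compound, in medium with 0.5% DMSO, was added one day after plating and left for 72 h before CellTiter-Glo 2.0 addition.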

T47D cells = experiment: Cellular growth inhibition assay for T47D cells, CellTiter-Glo; format: cell-based, human; settings: 72 hours treatment, CellTiter-Glo 2.0
Procedure, shortened: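 Cells are plated at 3000/well and allowed 24 h before treatment. Test compound in medium containing 0.5% DMSO is then added, with DMSO-only wells as negative control, and plates are incubated 72 h at 37 °C. ATP luminescence (CellTiter-Glo 2.0) is then fitted to four parameters to derive GI50.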

progesterone receptor = progesterone receptor (Homo sapiens, UniProt P06401); experiment: PR Human Progesterone NHR Binding (Agonist Radioligand) Assay, [3H]progesterone, T47D cytosol; settings: 0.5 nM [3H]progesterone, T47D cytosolic fractions, 1 hour at 4° C., legend words it as Kd
progesterone receptor, sequence (P06401 whole entry, looked up): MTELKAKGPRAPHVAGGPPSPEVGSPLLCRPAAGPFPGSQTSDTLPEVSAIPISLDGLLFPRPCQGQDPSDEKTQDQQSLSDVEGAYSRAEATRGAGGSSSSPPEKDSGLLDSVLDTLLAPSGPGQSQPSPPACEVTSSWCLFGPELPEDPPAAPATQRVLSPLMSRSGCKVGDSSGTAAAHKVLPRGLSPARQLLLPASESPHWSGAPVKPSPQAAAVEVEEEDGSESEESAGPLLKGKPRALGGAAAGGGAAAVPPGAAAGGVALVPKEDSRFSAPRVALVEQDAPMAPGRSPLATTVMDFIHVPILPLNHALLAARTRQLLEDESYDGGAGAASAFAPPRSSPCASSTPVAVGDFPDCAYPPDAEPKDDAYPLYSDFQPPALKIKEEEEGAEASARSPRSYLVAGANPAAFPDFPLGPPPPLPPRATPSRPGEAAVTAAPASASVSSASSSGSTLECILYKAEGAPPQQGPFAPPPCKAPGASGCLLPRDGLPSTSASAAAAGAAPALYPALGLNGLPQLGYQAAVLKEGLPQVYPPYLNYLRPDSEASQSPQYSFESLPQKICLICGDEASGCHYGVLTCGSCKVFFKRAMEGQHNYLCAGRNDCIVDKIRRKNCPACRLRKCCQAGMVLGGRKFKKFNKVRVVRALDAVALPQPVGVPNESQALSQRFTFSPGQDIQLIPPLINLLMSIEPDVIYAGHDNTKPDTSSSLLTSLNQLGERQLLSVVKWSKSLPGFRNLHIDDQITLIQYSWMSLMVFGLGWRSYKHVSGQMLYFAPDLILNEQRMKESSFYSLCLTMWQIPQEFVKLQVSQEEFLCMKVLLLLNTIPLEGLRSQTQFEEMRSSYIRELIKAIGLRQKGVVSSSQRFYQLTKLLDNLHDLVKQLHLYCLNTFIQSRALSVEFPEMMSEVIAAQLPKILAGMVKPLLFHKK
Method: Compounds were tested using the PR Human Progesterone NHR Binding (Agonist Radioligand) Assay, Cerep at Eurofins Discovery using a modified version of the protocol from Sarup et al. (Cancer Res 1988; 48:5071-5078). Briefly, cytosolic fractions of T47D cells were incubated with 0.5 nM [^3H]progesterone for 1 hour at 4° C. in the absence or presence of the test compound. Nonspecific binding was determined in the presence of 1 μM promegestone. Reactions were subjected to scintillation counting. Results are expressed as a percent inhibition of the control radioligand specific binding.

[3] = molecular target: progesterone receptor ligand binding domain (LBD) (Homo sapiens (Human), UniProt P06401); experiment: FP assay for binding affinity to progesterone receptor (PolarScreen Progesterone Receptor Competitor Assay); settings: GST-tagged PR LBD, Fluormone tracer, fluorescence polarization, 2 hours at room temperature
progesterone receptor ligand binding domain (LBD), sequence (P06401 679-913): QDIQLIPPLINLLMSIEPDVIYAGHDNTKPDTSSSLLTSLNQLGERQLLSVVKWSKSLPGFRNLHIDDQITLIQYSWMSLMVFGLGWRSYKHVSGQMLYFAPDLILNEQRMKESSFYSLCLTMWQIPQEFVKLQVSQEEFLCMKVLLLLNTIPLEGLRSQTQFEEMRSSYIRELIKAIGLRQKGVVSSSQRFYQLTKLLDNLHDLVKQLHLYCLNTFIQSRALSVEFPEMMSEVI
Method: Compounds were tested using the PolarScreen™ Progesterone Receptor Competitor Assay Kit (Life Technologies Cat #A15905 or a15906), as per the manufacturer's instructions. Briefly, GST-tagged PR LBD, Fluormone tracer, and compound were mixed and incubated for 2 hours at room temperature in the dark. Following incubation, the plates were spun at 3000×g for 30 seconds, then sealed with an optical adhesive cover, and fluorescence polarization was measured using appropriate excitation and emission filters with an EnVision Plate Reader (Perkin Elmer). Compound concentration vs. mP value were plotted in Prism (GraphPad). A four-parameter non-linear regression curve fit was applied to dose-response data to determine the half-maximal inhibitory concentration (IC50) for each test compound.

BRD4-BD1 = BRD4-BD1 (Homo sapiens (Human), UniProt O60885); experiment: bromoKdELECT assay for binding affinity to BRD4-BD1; settings: 11-point 3-fold dilution
BRD4-BD2 = BRD4-BD2 (Homo sapiens (Human), UniProt O60885); experiment: bromoKdELECT assay for binding affinity to BRD4-BD2; settings: 11-point 3-fold dilution

Row | Ki (progesterone receptor) [nM] | GI50 (T47D cells; Homo sapiens) [nM] | Compound | Kd (androgen receptor) [nM] | GI50 [1] [nM] | GI50 [2] [nM] | GI50 (VCaP cells; Homo sapiens) [nM] | GI50 (VCaP cells) [nM] | GI50 (T47D cells) [nM] | IC50 [3] [nM] | Kd (BRD4-BD1) [nM] | Kd (BRD4-BD2) [nM]
1 |  |  | CCS(=O)(=O)Nc1ccc(Oc2cccc(OCCOC3CCN(c4ccc(C(=O)N[C@H]5CC[C@H](Oc6ccc(C#N)c(Cl)c6)CC5)cc4)CC3)c2)c(-c2cn(C)c(=O)c3[nH]ccc23)c1 [I-6, N-[4-(3-chloro-4-cyano-phenoxy)cyclohexyl]-4-[4-[2-[3-[4-(ethylsulfonylamino)-2-(6-methyl-7-oxo-1H-pyrrolo[2,3-c]pyridin-4-yl)phenoxy]phenoxy]ethoxy]-1-piperidyl]benzamide] | 500 to 2500 | < 500 | < 500 | < 500 |  |  |  |  | 
2 |  |  | CCS(=O)(=O)Nc1ccc(Oc2cccc(OCCOC3CCN(c4cnc(C(=O)N[C@H]5CC[C@H](Oc6ccc(C#N)c(Cl)c6)CC5)cn4)CC3)c2)c(-c2cn(C)c(=O)c3[nH]ccc23)c1 [I-8, N-[4-(3-chloro-4-cyano-phenoxy)cyclohexyl]-5-[4-[2-[3-[4-(ethylsulfonylamino)-2-(6-methyl-7-oxo-1H-pyrrolo[2,3-c]pyridin-4-yl)phenoxy]phenoxy]ethoxy]-1-piperidyl]pyrazine-2-carboxamide] | 500 to 2500 | < 500 | < 500 | < 500 |  |  |  |  | 
3 |  |  | CCS(=O)(=O)Nc1ccc(Oc2cccc(OCCOC3CCN(c4cnc(C(=O)N[C@H]5CC[C@H](Oc6ccc(C#N)c(Cl)c6)CC5)nc4)CC3)c2)c(-c2cn(C)c(=O)c3[nH]ccc23)c1 [I-10, N-[4-(3-chloro-4-cyano-phenoxy)cyclohexyl]-5-[4-[2-[3-[4-(ethylsulfonylamino)-2-(6-methyl-7-oxo-1H-pyrrolo[2,3-c]pyridin-4-yl)phenoxy]phenoxy]ethoxy]-1-piperidyl]pyrimidine-2-carboxamide] | 50 to 500 | < 500 | > 3000 | < 500 |  |  |  |  | 
4 |  |  | Cn1cc(-c2cc(C(C)(C)O)ccc2Oc2ccc(CCC3CCN(c4cnc(C(=O)N[C@H]5CC[C@H](Oc6ccc(C#N)c(Cl)c6)CC5)cn4)CC3)cc2)c2cc[nH]c2c1=O [I-119] | 500 to 2500 | < 500 | < 500 |  | < 500 | < 500 |  |  | 
5 |  |  | Cn1cc(-c2cc(C(C)(C)O)ccc2Oc2ccc(C3CN(c4ccc(C(=O)N[C@H]5CC[C@H](Oc6ccc(C#N)c(Cl)c6)CC5)nn4)C3)cc2)c2cc[nH]c2c1=O [I-104] | < 50 | < 500 | 500 to 1500 |  | < 500 | < 500 |  |  | 
6 | 500 to 2500 |  | CCS(=O)(=O)Cc1ccc(Oc2cccc(OCCOC3CCN(c4cnc(C(=O)N[C@H]5CC[C@H](Oc6ccc(C#N)c(Cl)c6)CC5)cn4)CC3)c2F)c(-c2cn(C)c(=O)c3[nH]ccc23)c1 [I-28] | 50 to 500 | < 500 | < 500 | < 500 |  |  |  |  | 
7 |  |  | CCS(=O)(=O)Nc1ccc(Oc2cccc(OCCOC3CCN(c4ccc(C(=O)N[C@H]5CC[C@H](Oc6ccc(C#N)c(Cl)c6)CC5)nc4)CC3)c2)c(-c2cn(C)c(=O)c3[nH]ccc23)c1 [I-9, N-[4-(3-chloro-4-cyano-phenoxy)cyclohexyl]-5-[4-[2-[3-[4-(ethylsulfonylamino)-2-(6-methyl-7-oxo-1H-pyrrolo[2,3-c]pyridin-4-yl)phenoxy]phenoxy]ethoxy]-1-piperidyl]pyridine-2-carboxamide] | 500 to 2500 | < 500 | < 500 | < 500 |  |  |  |  | 
8 |  |  | CCS(=O)(=O)Nc1ccc(Oc2cccc(OCCOC3CCN(c4ccc(C(=O)N[C@H]5CC[C@H](Oc6ccc(C#N)c(Cl)c6)CC5)cn4)CC3)c2)c(-c2cn(C)c(=O)c3[nH]ccc23)c1 [I-7, N-[4-(3-chloro-4-cyano-phenoxy)cyclohexyl]-6-[4-[2-[3-[4-(ethylsulfonylamino)-2-(6-methyl-7-oxo-1H-pyrrolo[2,3-c]pyridin-4-yl)phenoxy]phenoxy]ethoxy]-1-piperidyl]pyridine-3-carboxamide] | 500 to 2500 | < 500 | < 500 | < 500 |  |  |  |  | 
9 |  | < 500 | Cn1cc(-c2cc(C(C)(C)O)ccc2Oc2ccc(CCOC3CCN(c4ccc(C(=O)N[C@H]5CC[C@H](Oc6ccc(C#N)c(Cl)c6)CC5)nn4)CC3)cc2F)c2cc[nH]c2c1=O [I-106] |  | < 500 | < 500 | 500 to 1500 |  |  | 50 to 500 |  | 
10 |  |  | Cn1cc(-c2cc(S(=O)(=O)CCCCOC3CCN(c4ccc(C(=O)NC5CCC(Oc6ccc(C#N)c(Cl)c6)CC5)nn4)CC3)ccc2Oc2ccc(F)cc2F)c2cc[nH]c2c1=O (stereo not shown) [I-92, N-[4-(3-chloro-4-cyano-phenoxy)cyclohexyl]-6-[4-[4-[4-(2,4-difluorophenoxy)-3-(6-methyl-7-oxo-1H-pyrrolo[2,3-c]pyridin-4-yl)phenyl]sulfonylbutoxy]-1-piperidyl]pyridazine-3-carboxamide] |  | < 500 | > 3000 | > 3000 |  |  | 50 to 500 | > 2500 | > 2500
